This note sets out measurements from patent US4346102A, “3H-Dihydrofuranone-2 derivatives and pharmaceutical use thereof” (Delalande S.A., priority 1979, dated 1982).

Read-outs that look alike come from different tables or passages of the source.

For data set [1], the system named is generalized trembling caused by dl-5-hydroxytryptophane. Description: Test B: potentialization in mice of generalized trembling caused by dl-5-hydroxytryptophane. The class given is in vivo. The conditions noted are these: Mus musculus, read-out: Test B ED 50. An excerpt:
Test B: Potentialization in mice of generalized trembling caused by an intraperitoneal injection of dl-5-hydroxytryptophane, according to the protocol described by GOURET C. and RAYNAUD G. in J. Pharmacol. (Paris), (1974), 5, 231.

The test system of data set [2] is ptosis (reserpine). Description: Test A: antagonism with respect to ptosis observed one hour after intravenous injection of reserpine in mice. The conditions noted are these: Mus musculus, 1 h, read-out: Test A ED 50. The class given is in vivo.
Method: Test A: Antagonism with respect to ptosis observed one hour after an intravenous injection (2 mg/kg) of reserpine given to mice according to the protocol described by GOURET C. and THOMAS J. in J. Pharmacol. (Paris, (1973), 4, 401.
Data set [3] is described as follows: Acute toxicity, LD 50 in mice, oral. The settings on record: mouse, in vivo.
Setting [4] is: mice, oral, dl-5-hydroxytryptophane i.p.
Setting [5] is: mice, oral, ptosis one hour after reserpine 2 mg/kg i.v.

As a reminder, the LD50 is the dose at which mortality reaches 50%. The low end stands for greater toxicity, the high end for lower toxicity.

As to `COC[C@@H]1C[C@@H](c2ccc(OCc3cccc(C#N)c3)cc2)C(=O)O1` (relative stereo) [13 A], the ED50 turned out to be 20 mg/kg in data set [1] (setting [4]) and 12 mg/kg in data set [2] (setting [5]). Moreover, in data set [3], the LD50 is more than 2000 mg/kg.

Take `COC[C@H]1C[C@@H](c2ccc(OCCCCCl)cc2)C(=O)O1` (relative stereo) [3 B]: the ED50 in data set [1] (setting [4]) was determined as 1.7 mg/kg; in data set [2] (setting [5]) it was 3.6 mg/kg. Also, in data set [3], the LD50 amounted to 2000 mg/kg.

Turning to `CC(C)CCOc1ccc(C2CC(CO)OC2=O)cc1` (stereo not drawn) [Compound 1], the ED50 in data set [1] (setting [4]) was 14 mg/kg; in data set [2] (setting [5]), 19 mg/kg.

For `O=C(CCNNC(=O)c1ccncc1)NCc1ccccc1` [NIALAMIDE, reference compound], the ED50 in data set [1] (po) amounted to 5.2 mg/kg; in data set [2] (po), 4.5 mg/kg. Also, the LD50 in data set [3] came to 1100 mg/kg.

`COC[C@H]1C[C@@H](c2ccc(OCc3cccc(Cl)c3)cc2)C(=O)O1` (relative stereo) [10 B]: the results for the ED50 in data set [1] (setting [4]) and in data set [2] (setting [5]) were 10 mg/kg and 15 mg/kg, respectively. Moreover, the LD50 in data set [3] was more than 2000 mg/kg.

`COC[C@H]1C[C@H](c2ccc(OCc3cc(C#N)cc([N+](=O)[O-])c3)cc2)C(=O)O1` (relative stereo) [17 A]: the ED50 turned out to be 6.4 mg/kg in data set [1] (setting [4]) and 5.5 mg/kg in data set [2] (setting [5]). Besides, the LD50 in data set [3] is more than 2000 mg/kg.

As for `COCC1C=C(c2ccc(OCc3ccccc3)cc2)C(=O)O1` (stereo not drawn) [Compound 20], the ED50 in data set [1] (setting [4]) was 4 mg/kg; in data set [2] (setting [5]), 4.4 mg/kg. The compound also showed a median lethal dose (LD50) in data set [3] of more than 2000 mg/kg.

On to `COCC1C=C(c2ccc(OCc3cccc(Cl)c3)cc2)C(=O)O1` (stereo not drawn) [Compound 11], for which the ED50 was 1.6 mg/kg in data set [1] (setting [4]) and 2.3 mg/kg in data set [2] (setting [5]). The LD50 in data set [3] was more than 2000 mg/kg.

For the compound `COC[C@H]1C[C@@H](c2ccc(OCc3ccccc3)cc2)C(=O)O1` (relative stereo) [5 B], the ED50 in data set [1] (setting [4]) amounted to 15.5 mg/kg; in data set [2] (setting [5]), 11.5 mg/kg.

Turning to `C#CCN(C)Cc1ccccc1` [PARGYLINE, reference compound], the ED50 in data set [1] (setting [4]) came to 48 mg/kg; in data set [2] (setting [5]), 34 mg/kg. This compound had an LD50 in data set [3] of 480 mg/kg.

As for `COCC1CC(c2ccc(OCCCCC#N)cc2)C(=O)O1` (stereo not drawn) [Compound 4], the ED50 stood at 0.19 mg/kg in data set [1] (setting [4]) and 0.3 mg/kg in data set [2] (setting [5]). For the same compound, the LD50 in data set [3] was more than 2000 mg/kg.

As to `O=C1O[C@@H](CO)C[C@H]1c1ccc(OCc2cccc([N+](=O)[O-])c2)cc1` (relative stereo) [6 B], the ED50 in data set [1] (setting [4]) was 2 mg/kg; in data set [2] (setting [5]), 1.6 mg/kg. Further, the LD50 in data set [3] was more than 2000 mg/kg.

With `COC[C@H]1C[C@@H](c2ccc(OCc3cccc([N+](=O)[O-])c3)cc2)C(=O)O1` (relative stereo) [8 B], the figures for the ED50 in data set [1] (setting [4]) and in data set [2] (setting [5]) were 0.29 mg/kg and 0.58 mg/kg, respectively. Further, the LD50 in data set [3] worked out at 2000 mg/kg.

For `N#Cc1cc(COc2ccc(C3CC(CO)OC3=O)cc2)cc([N+](=O)[O-])c1` (stereo not drawn) [Compound 16], the ED50 was found to be 3.5 mg/kg in data set [1] (setting [4]) and 1.2 mg/kg in data set [2] (setting [5]). This compound registered an LD50 in data set [3] of more than 2000 mg/kg.

Turning to `COCC1CC(c2ccc(OCc3cccnc3)cc2)C(=O)O1` (stereo not drawn) [Compound 15], the ED50 in data set [1] (setting [4]) stood at 12 mg/kg; in data set [2] (setting [5]), 5.8 mg/kg.

Regarding `CC(=O)OC[C@H]1C[C@H](c2ccc(OCc3cccc([N+](=O)[O-])c3)cc2)C(=O)O1` (relative stereo) [7 A], the ED50 in data set [1] (setting [4]) came to 10 mg/kg; in data set [2] (setting [5]), 12.5 mg/kg.

As for `O=C1OC(CO)CC1c1ccc(OCc2cccc([N+](=O)[O-])c2)cc1` (stereo not drawn) [Compound 6, 3-para(metanitrobenzyloxy)phenyl-5-hydroxymethyl-3H-dihydrofuranone-2], the values for the ED50 in data set [1] (setting [4]) and in data set [2] (setting [5]) were 1.5 mg/kg and 1.4 mg/kg, respectively.

In the case of `COC[C@H]1C[C@@H](c2ccc(OCc3ccc(F)c(Cl)c3)cc2)C(=O)O1` (relative stereo) [18 B], the ED50 in data set [1] (setting [4]) was determined as 3.1 mg/kg; in data set [2] (setting [5]) it was 5.4 mg/kg. For the same compound, the LD50 in data set [3] is more than 2000 mg/kg.

For the compound `COC[C@H]1C[C@H](c2ccc(OCc3cccc(Cl)c3)cc2)C(=O)O1` (relative stereo) [10 A], the ED50 in data set [1] (setting [4]) amounted to 10 mg/kg; in data set [2] (setting [5]) it was 24 mg/kg. The compound also had an LD50 in data set [3] of more than 2000 mg/kg.

With `CC(=O)OC[C@H]1C[C@@H](c2ccc(OCc3cccc([N+](=O)[O-])c3)cc2)C(=O)O1` (relative stereo) [7 B], the ED50 in data set [1] (setting [4]) is 3.2 mg/kg; in data set [2] (setting [5]), 2.5 mg/kg. For the same compound, the LD50 in data set [3] was more than 2000 mg/kg.

`COC[C@@H]1C[C@H](c2ccc(OCc3cccc(C#N)c3)cc2)C(=O)O1` (relative stereo) [13 B]: the ED50 in data set [1] (setting [4]) came out at 1.7 mg/kg; in data set [2] (setting [5]) it was 0.9 mg/kg. Further, the LD50 in data set [3] was more than 2000 mg/kg.

On to `COC[C@H]1C[C@H](c2ccc(OCc3cccc([N+](=O)[O-])c3)cc2)C(=O)O1` (relative stereo) [8 A], for which the ED50 in data set [1] (setting [4]) worked out at 4.4 mg/kg; in data set [2] (setting [5]), 6.2 mg/kg. Further, the LD50 in data set [3] is more than 2000 mg/kg.

Turning to `O=C1O[C@@H](CO)C[C@@H]1c1ccc(OCc2cccc([N+](=O)[O-])c2)cc1` (relative stereo) [6 A], the figures for the ED50 in data set [1] (setting [4]) and in data set [2] (setting [5]) were 5.8 mg/kg and 4.4 mg/kg, respectively. The same compound returned an LD50 in data set [3] of more than 2000 mg/kg.

With `COC[C@H]1C[C@H](c2ccc(OCc3ccc(F)c(Cl)c3)cc2)C(=O)O1` (relative stereo) [18 A], the ED50 is 16 mg/kg in data set [1] (setting [4]) and 23 mg/kg in data set [2] (setting [5]).

For `COCC1C=C(c2ccc(OCc3cccc(C#N)c3)cc2)C(=O)O1` (stereo not drawn) [Compound 14, 3-para(metacyanobenzyloxy)-phenyl-5-methoxymethyl-5H-furanone-2], the ED50 in data set [1] (setting [4]) was found to be 0.55 mg/kg; in data set [2] (setting [5]), 0.68 mg/kg.

Take `COCC1C=C(c2ccc(OCc3ccc(F)c(Cl)c3)cc2)C(=O)O1` (stereo not drawn) [Compound 19]: the ED50 in data set [1] (setting [4]) amounted to 2.4 mg/kg; in data set [2] (setting [5]), 2.1 mg/kg. In data set [3], this compound yielded an LD50 of more than 2000 mg/kg.

For `C#CCN(C)C(C)Cc1ccccc1` (stereo not drawn) [reference compound], the ED50 was found to be 3 mg/kg in data set [1] (po) and 9 mg/kg in data set [2] (po). In data set [3], the LD50 worked out at 520 mg/kg.

For `COCC1C=C(c2ccc(OCc3cccc([N+](=O)[O-])c3)cc2)C(=O)O1` (stereo not drawn) [Compound 9], in data set [2] (setting [5]), the ED50 was found to be 0.22 mg/kg. Further, in data set [3], the LD50 was more than 2000 mg/kg.

As for `N#Cc1cccc(COc2ccc(C3CC(CO)OC3=O)cc2)c1` (stereo not drawn) [Compound 12], the ED50 in data set [1] (setting [4]) is 16 mg/kg; in data set [2] (setting [5]), 10 mg/kg.

Consider `COC[C@H]1C[C@@H](c2ccc(OCc3cc(C#N)cc([N+](=O)[O-])c3)cc2)C(=O)O1` (relative stereo) [17 B], for which the ED50 in data set [1] (setting [4]) is 0.55 mg/kg; in data set [2] (setting [5]) it was 0.32 mg/kg. This compound came in with an LD50 in data set [3] of 1700 mg/kg.

With `N[C@@H]1C[C@H]1c1ccccc1` (relative stereo) [TRANYLCYPROMINE, reference compound], the ED50 was found to be 1.37 mg/kg in data set [1] (po) and 1.55 mg/kg in data set [2] (po). For the same compound, the LD50 in data set [3] was determined as 58 mg/kg.

For the compound `O=C1OC(CO)CC1c1ccc(OCC2CCCCC2)cc1` (stereo not drawn) [Compound 2], the values for the ED50 in data set [1] (setting [4]) and in data set [2] (setting [5]) were 9 mg/kg and 5.5 mg/kg, respectively. The compound also yielded a 50% lethal dose (LD50) in data set [3] of more than 2000 mg/kg.
